{
  "source": "patent US10561379B2",
  "about": "“In vivo positron emission tomography-based perfusion/blood pool imaging using labeled erythrocytes” (H. LEE MOFFITT CANCER CENTER AND RESEARCH INSTITUTE, INC., priority 2016, dated 2020)",
  "key": {"[1]": {"system": "splenectomized NSG immunodeficient mouse", "assay": "microPET imaging of mice injected with FDG-labeled human erythrocytes or free FDG (Example 2)", "assay_type": "in vivo", "settings": "tail vein catheter injection (≈47 microCuries FDG-labeled erythrocytes or ≈32 microCuries free FDG), 20-minute PET", "procedure": "Approximately 47 microCuries of FDG-labeled human erythrocytes were injected via tail vein catheter into a splenectomized NSG immunodeficient mouse. The mouse was placed into a Siemens INVEON microPET scanner, and 18-F PET imaging of the mouse was performed over a 20-minute time period.\nApproximately 32 microCuries of free FDG were injected via tail vein catheter into a second splenectomized NSG immunodeficient mouse. The mouse was placed into the Siemens INVEON microPET scanner, and 18-F PET imaging of the mouse was performed over a 20-minute time period."}, "[2]": {"system": "human RBCs", "assay": "FDG uptake by human RBCs (% total FDG incorporation, dose calibrator counting)", "assay_type": "cell-based", "settings": "for mean % total FDG incorporation: 30' 37° C. incubation with 37-74 MBq FDG (text b108)", "procedure": "[…] 30′, centrifuged 1000 g 10′, and washed twice in 4× volume 1×EDTA solution. […] Sample/wash aliquots were counted in an Atomlab 600 dose calibrator (Biodex) to measure % retained FDG.\nHuman red blood cell (RBC) preparation and FDG-RBC labeling: Packed human red blood cells collected in standard anticoagulant citrate dextrose (ACD) solution (either ≤24 hours post phlebotomy or ˜5 day post phlebotomy) were obtained from Zen-Bio, Inc. 370-740 Megabecquerel (MBq) (1 ml) USP grade 2-deoxy-2-(^18F)fluoro-D-glucose (FDG) were obtained from Cardinal Health. Vendor supplied human RBCs are centrifuged 1000 g 10′, and the remaining anticoagulant and buffy coat residual are gently aspirated. RBCs are then gently washed in a 4× volume of filter sterilized “1×EDTA” solution (140 mM NaCl, 4 mM KCl, 2.5 mM Ethylenediaminetetraacetic acid dipotassium salt dihydrate (K2EDTA dihydrate)), centrifuged at 1000 g 10′, and the wash is manually aspirated. […] Samples are then centrifuged at 1000 g 10′ and the supernatant is carefully aspirated. RBCs are then washed and centrifuged twice with 4× volumes of 1×EDTA solution. For experiments characterizing residual unincorporated FDG, a 3rd wash/centrifugation step was performed. […] Aliquots from all samples and washes are counted with the Atomlab™ 600 dose calibrator (Biodex Medical Systems, Inc.)."}, "[3]": {"system": "splenectomized NSG immunodeficient mice", "assay": "ECG-gated whole body microPET/CT imaging of NSG immunodeficient mice", "assay_type": "in vivo, mouse", "settings": "for time activity curve (TAC) of the heart, pattern: observation period 20-30 minutes; for anatomic distribution of FDG in the heart (fused microPET/CT images) / whole body distribution of FDG activity on microPET image / urinary excretion of FDG (kidneys, bladder) on microPET image: tail vein injection; for whole body distribution of FDG activity on microPET image: injected activity differs per figure", "procedure": "4-6 wk old splenectomized NSG immunodeficient mice (Jax Lab) were fasted O/N and phlebotomized (200-250 μl), prior to microPET imaging with an INVEON PET/CT preclinical scanner (Siemens). […]\nPET images were analyzed with INVEON workstation software (Siemens). Patlak compartment plot option was chosen. For 3D PET and 4D PET data sets, VOIs were selected manually based on corresponding CT images: heart, leg muscle, liver, kidney and brain.\nECG-gated whole body microPET imaging of NSG immunodeficient mice: 4-6 week old splenectomized NOD scid gamma (NSG™) immunodeficient mice were obtained from The Jackson Laboratory. Mice were placed in specialized housing for immunodeficient mouse in the Moffitt Cancer Center (MCC) vivarium. Approval for all animal experimentation was first obtained from the University of South Florida (USF) Institutional Animal Care and Use Committee (IACUC). All animal experimentation was performed in accordance to federal regulations and USF IACUC principles and procedures. Animal imaging was performed in the MCC Small Animal Imaging Laboratory with an INVEON PET/CT (Siemens Medical Inc., Knoxville, Tenn.) preclinical scanner. Mice are first fasted the night before microPET imaging and undergo phlebotomy of ≈200-250 μl whole blood via retro-orbital venous plexus puncture immediately prior to microPET imaging. Blood glucose from the phlebotomized blood is measured. A tail vein microcatheter is placed in each mouse under inhalational isoflurane anesthesia. […] The PET part of the system has 64 detector blocks with total field of view (FOV) 12.7 cm and a spatial resolution of 1.4 mm. […] The ECG signal in each mouse was detected with three flat electrodes placed in two front and one rear limbs of each animal (ground lead on a rear leg). […] The threshold for TTL cardiac gating signals was set in a rising mode of R-wave peak. The PET list-mode data were reconstructed using 3D-OSEM iterative algorithm with four iterations and eight subsets, with a final image volume of 256×256×256 voxels. Voxel effective dimensions were 1.4×1.4×1.4 mm. For each animal there are three data sets: standard 3-dimensional (3D) PET reconstruction, resulting in a motion-time average 3D PET image; dynamic 3D PET reconstruction with 30 frames; and the phase-based 4-dimensional (regular 3-dimensional plus time, 4D) PET cardiac reconstruction, with four cardiac gates binning. In all cases, CT attenuation correction was applied to the PET images.\nPET images of the mice were analyzed using INVEON Workstation Software (Siemens Medical Inc., Knoxville, Tenn.). Vendor software-supplied Patlak compartment plot option was selected (Patlak et al., 1983). For 3D PET and 4D PET data sets multiple volumes of interest (VOI) were selected manually based on corresponding CT images including: heart, leg muscle, liver, kidney and brain. […] Dynamic activity curves were plotted for VOIs using dynamic 3D PET data set for each animal. The 4D PET data were used for defining cardiac function. First the heart was segmented on CT images based on anatomical features, after that segmented volume (cardiac PET VOI) was transferred into co-registered PET images."}, "[4]": {"system": "human red blood cells", "assay": "FDG labeling of human red blood cells, 5 minute incubation at room temperature (Example 1)", "assay_type": "cell-based", "procedure": "150 microCuries of FDG in a 100 microliter volume was incubated with 250 microliters of human red blood cells to a final solution volume of 500 microliters (NaCl/KCl/EDTA solution contains 140 mM NaCl, 4 mM KCl, 2.5 mM K2EDTA dihydrate). FDG incubation duration=5 minutes at room temperature. Triplicate samples were used. Samples were centrifuged 1000 g 10 minutes after 5 minute FDG incubation, and RBC pellet was washed twice with 1.0 ml of NaCl/KCl/EDTA solution. A sample of the collected supernatant and a pellet sample was counted in a gamma counter with 18-F gating. 3% incorporation rate=4.5 microCurie of incorporated FDG/250 microliters of human red blood cell=18 microCurie of FDG/1 ml human red blood cells. Thus, 60 milliliters of whole blood from a patient should yield approximately 432-486 microCuries of FDG labeled red blood cells. (Assumes average 40% female hematocrit and 45% male hematocrit)."}},
  "data": [
    {"substance": "2-deoxy-2-(^18F)fluoro-D-glucose [FDG]", "values": [
      {"measurement": "tracer distribution on PET image", "setting": "[1]", "result": "majority of free FDG uptake is seen in the heart muscle, bladder, and kidneys"},
      {"measurement": "FDG incorporated in packed RBCs on clinical translation of the labeling/wash protocol", "setting": "[2]; 10 ml's packed RBCs, initial 740 MBq FDG, inventor's prediction", "result": "up to 370 MBq"},
      {"measurement": "mean % total FDG incorporation", "setting": "[2]; 250 μl 1 day old RBCs", "result": "85.3%±1.8%"},
      {"measurement": "% total FDG incorporation", "setting": "[2]; 250 μl 1 day old human RBCs, 37° C., 30' (text b110)", "result": "73.3%±3.6%"},
      {"measurement": "% total FDG incorporation", "setting": "[2]; 250 μl 1 day old human RBCs, 37° C., 30 minutes (time course)", "result": "78.3%±0.9"},
      {"measurement": "% total FDG incorporation", "setting": "[2]; 250 μl 1 day old human RBCs, 37° C., 1 hour (time course)", "result": "85.0%±0.0%"},
      {"measurement": "% total FDG incorporation", "setting": "[2]; 250 μl 1 day old human RBCs, 37° C., 2 hours (FIG. 3 legend)", "result": "73.3%±3.6%"},
      {"measurement": "% total FDG incorporation", "setting": "[2]; 250 μl 1 day old human RBCs, 37° C., 2 hours (time course)", "result": "85.3%±0.3%"},
      {"measurement": "% total FDG incorporation", "setting": "[2]; 250 μl 1 day old human RBCs, 2 hours (FIG. 4 legend)", "result": "85.3%±1.8%"},
      {"measurement": "% total FDG incorporation", "setting": "[2]; 250 μl 1 day old human RBCs, room temperature (~25° C.), 2 hours", "result": "10.3%±1.1%"},
      {"measurement": "% total FDG incorporation", "setting": "[2]; 250 μl 5 day old human RBCs, 2 hours (FIG. 4 legend)", "result": "3.3%±0.2%"},
      {"measurement": "mean % total FDG incorporation", "setting": "[2]; 5 day old RBCs", "result": "3.3%±0.2%"},
      {"measurement": "internal FDG uptake (in words)", "setting": "[2]; human RBCs collected and used ≈5 days after phlebotomy", "result": "negligible rate of internal FDG uptake"},
      {"measurement": "time activity curve (TAC) of the heart, pattern", "setting": "[3]", "result": "increases steadily over the observation period of 20-30 minutes"},
      {"measurement": "time activity curve (TAC) of the heart, pattern", "setting": "[3]; listed as free FDG", "result": "steady increase in FDG activity over time"},
      {"measurement": "anatomic distribution of FDG in the heart (fused microPET/CT images)", "setting": "[3]", "result": "marked myocardial uptake of FDG in the left ventricle"},
      {"measurement": "whole body distribution of FDG activity on microPET image", "setting": "[3]; listed as free 18F-FDG", "result": "normal marked FDG uptake in the myocardium"},
      {"measurement": "whole body distribution of FDG activity on microPET image", "setting": "[3]; listed as free FDG", "result": "intense FDG accumulation in the myocardium and brain"},
      {"measurement": "anatomic distribution of FDG in the heart (fused microPET/CT images)", "setting": "[3]; listed as free 18F-FDG", "result": "intense physiologic FDG uptake by myocardium of the left ventricle"},
      {"measurement": "urinary excretion of FDG (kidneys, bladder) on microPET image", "setting": "[3]; listed as free 18F-FDG", "result": "physiologic FDG excretion into the kidneys and bladder"},
      {"measurement": "urinary excretion of FDG (kidneys, bladder) on microPET image", "setting": "[3]; listed as free FDG", "result": "marked urinary excretion in the kidneys and bladder"},
      {"measurement": "incorporation rate", "setting": "[4]; 150 microCuries FDG, 250 microliters human red blood cells, 5 minutes at room temperature", "result": 3, "unit": "%"},
      {"measurement": "FDG/1 ml human red blood cells", "setting": "[4]; 5 minutes at room temperature", "result": 18, "unit": "microCurie"},
      {"measurement": "incorporated FDG/250 microliters of human red blood cell", "setting": "[4]; 5 minutes at room temperature, 150 microCuries FDG", "result": 4.5, "unit": "microCurie"},
      {"measurement": "FDG labeled red blood cells yielded from 60 milliliters of whole blood from a patient", "setting": "[4]; extrapolated, assumes 40% female and 45% male hematocrit", "result": "432-486 microCuries"}
    ]}
  ]
}
